Laboratory results: patent US10179770B2, “Quinolines derivatives as novel anticancer agents” (GENOSCIENCE PHARMA, priority 2013, dated 2019)
Counter-ions that a name gives are not always drawn. Like-named read-outs stand apart in the source and are kept apart here.

Key:
Test in all cases: Cell proliferation assay at 10 μM
[1] = system: A375; type: cell-based, human; details: Homo sapiens, read-out: Cell viability observed at 10 μM
Method: (§1) The human melanoma cell line A375 and colorectal carcinoma cell line HCT-116 were cultured in Dulbecco's modified Eagle's medium supplemented with 10% fetal bovine serum and 1% Penicillin-Streptomycin. The human leukemia cell line MOLM-14 was cultured in Minimum Essential Medium Alpha Medium supplemented with 10% Fetal Bovine Serum and 1% Penicillin-Streptomycin. All the cell lines were maintained at 37° C. with 5% CO2.
(§2) Briefly, adherent cells, A375 and HCT-116 cells were respectively plated at 800 or 5,000 cells per well onto 96-well plates in 90 μL of media per well and were allowed to grow overnight before the assay.
(§3) Compounds were added at different concentrations to each well, and cell cultures were incubated for 72 h. Vehicle (DMSO or H2O) was used as a control, and all compounds were tested in a constant percentage of vehicle. Cell outgrowth was measured using for adherent cells CellTiter […] Aqueous One Solution Cell Proliferation Assay (Promega) and for cell suspension, Sulforhodamine B colorimetric assay as described in Vichai et al. (Vichai, V. and Kirtikara, K. Nat. Protoc. 2006 (1) 1112-1116). Absorbance was measured using an Infinite F200 Pro or Sunrise TECAN plate reader.
(§4) In each experiment, each point represents the average of two replicates in cell culture.
(§5) Results are presented in Table 1 below for concentrations of 10 μM of tested compounds.

[2] = system: HCT-116; type: cell-based; details: Homo sapiens, HCT-116, 72 h
Method: as §1, §2, §3, §4, §5

[3] = system: MOLM-14; type: cell-based, human; details: Homo sapiens, read-out: Cell viability observed at 10 μM
Method: as §1
For MOLM-14 cell line, which grows in suspension, 30,000 cells were plated onto 96-well plates immediately before the assay.
as §3, §4, §5

[4] = read-out: Cell viability observed at 10 μM
[5] = A-375, A375, 10 μM, 72 h, % of cell viability remaining
[6] = HCT-116, 10 μM, 72 h, % of cell viability remaining, read-out: Cell viability observed at 10 μM
[7] = MOLM-14, 10 μM, 72 h, % of cell viability remaining

SMILES | viability at 10 µM ([1]; A-375, 72 h) | viability at 10 µM [2, 4] | viability at 10 µM ([3]; MOLM-14, 72 h) | viability at 10 µM [1, 5] | viability at 10 µM [2, 6] | viability at 10 µM [3, 7] | viability at 10 µM ([2]; read-out: Cell viability observed at 10 μM, HCT-116, 10 μM, 72 h, % of cell viability remaining)
CCN(CC)C1CCN(Cc2cc(-c3ccccc3)nc3ccccc23)CC1 [XX-5, 2-phenyl-4-[4-(N,N-diethylamino)-piperidin-1-ylmethyl]quinoline dihydrochloride] | 60 to 80% | > 80% | 40 to 60% | – | – | – | –
CC(c1cc(-c2ccccc2)nc2ccccc12)N1CCC(N(CCc2ccccc2)Cc2ccccc2)CC1 (stereo not drawn) [XXI-4, 2-phenyl-4-{1-{4-[benzyl(phenethyl)amino]-piperidin-1-yl}-eth-1-yl}quinoline dihydrochloride] | > 80% | > 80% | > 80% | – | – | – | –
CN(c1cc(-c2ccccc2)nc2cc(Cl)ccc12)C1CCN(Cc2ccccc2)CC1 [XXIX-2, 7-chloro-2-phenyl-4-[N-methyl-N—(N-benzylpiperidin-4-yl)-amino]quinoline hydrochloride salt] | – | – | – | > 80% | > 80% | > 80% | –
CCN(CC)CC1CCN(c2cc(-c3ccccc3)nc3cc(Cl)ccc23)CC1 [XXVI-4, 7-chloro-2-phenyl-4-[4-(N,N-diethylaminomethyl)-piperidin-1-yl]-quinoline hydrochloride salt] | > 80% | > 80% | > 80% | – | – | – | –
CCN(CC)CC1CCN(c2cc(-c3ccccc3)nc3ccccc23)CC1 [XXVII-2, 2-phenyl-4-[4-(N,N-diethylaminomethyl)-piperidin-1-yl)quinoline hydrochloride salt] | 20 to 40% | > 80% | 40 to 60% | – | – | – | –
CC(c1ccccc1)N1CCC(N(C)c2cc(-c3ccccc3)nc3cc(Cl)ccc23)CC1 (stereo not drawn) [XXX-2, 7-chloro-2-phenyl-4-[N-methyl-N—(N-1-phenylethyl-piperidin-4-yl)-amino]quinoline] | > 80% | – | 60 to 80% | – | – | – | > 80%
CC(c1ccccc1)N1CCC(N(C)c2cc(-c3ccccc3)nc3ccccc23)CC1 (stereo not drawn) [XXXI-2, 2-phenyl-4-[N-methyl-N—(N-1-phenylethyl-piperidin-4-yl)-amino]quinoline hydrochloride salt] | – | – | – | > 80% | > 80% | > 80% | –
O=C(NC1CCN(Cc2ccccc2)CC1)c1cc(-c2ccccc2)nc2cc(Cl)ccc12 [XXXII-2, N-(1-benzylpiperidin-4-yl)-7-chloro-2-phenylquinoline-4-carboxamide hydrochloride salt] | > 80% | > 80% | 40 to 60% | – | – | – | –
CC(NC1CCN(Cc2ccccc2)CC1)c1cc(-c2ccccc2)nc2ccccc12 (stereo not drawn) [XXXIV-2, 2-phenyl-4-{1-[(N-benzyl-piperidin-4-yl)amino]-eth-1-yl}quinoline hydrochloride salt] | < 20% | 20 to 40% | 40 to 60% | – | – | – | –
CN(C)CCCN(C)c1cc(-c2ccc3ccccc3c2)nc2ccccc12 [XXXIX-2, N^1,N^1,N^3-trimethyl-N^3-[2-(naphthalen-2-yl)-quinoline-4-yl]-propane-1,3-diamine hydrochloride salt] | < 20% | < 20% | < 20% | – | – | – | –
CC(NC1CCN(Cc2ccccc2)CC1)c1cc(-c2ccccc2)nc2cc(Cl)ccc12 (stereo not drawn) [XXXV-2, 7-chloro-2-phenyl-4-{1-[(N-benzyl-piperidin-4-yl)amino]-eth-1-yl}quinoline hydrochloride salt] | > 80% | > 80% | > 80% | – | – | – | –
CN(C)CCN(C)c1cc(-c2ccc3ccccc3c2)nc2ccccc12 [XXXVII-2, N^1,N^1,N^2-trimethyl-N^2-(2-naphthalen-2-yl-quinoline-4-yl)-ethane-1,2-diamine hydrochloride salt] | 40 to 60% | > 80% | 40 to 60% | – | – | – | –
CN(C)CCN(C)Cc1cc(-c2ccccc2)nc2cc(Cl)ccc12 [XXXVIII-2, N^1,N^1,N^2-trimethyl-N^2-(2-phenyl-7-chloro-quinoline-4-ylmethyl)-ethane-1,2-diamine hydrochloride salt] | < 20% | < 20% | 40 to 60% | – | – | – | –
